Experimental data as given in patent EP4613273A1, “TREATMENT OF BONE LOSS” (priority 2024, dated 2025).
Where a name gives a salt, the structure may show the parent alone. Read-outs that look alike come from different tables or passages of the source.

Assay: Plasma pharmacokinetic of MIV-701 after single and repeated oral administration of MIV-701 besylate salt in healthy cats
Type: in vivo
Details: for Cmax at 312 h / Tmax at 312 h / AUC(0-inf) at 312 h / AUC(0-t) at 312 h / half-life at 312 h / Cmax / Tmax at 0 h / AUC(0-inf) / AUC(0-t) / half-life: cat; for AUC(0-inf) at 312 h / AUC(0-inf): read-out: AUC(0-infini) (converted); for AUC(0-t) at 312 h / AUC(0-t): read-out: AUC(0-tfinal) (converted); for half-life at 312 h / half-life: read-out: T1/2 elimination (converted)
Experimental: MIV-701 besylate salt was administered once daily for 14 days to 4 healthy cats at three increasing doses: 2 mg/kg, 10 mg/kg and 50 mg/kg.
The three doses were consecutively administered for 14 days with a >5-day washout period between two dose levels.
Each treatment period can be resumed as follows: • J0 (T+24h): first administration, withdrawal of blood samples for pharmacokinetic and plasma CTX-1 assessment (pre-dose and 0.5h, 1h, 2h, 4h, 8h and 24h after first drug administration), pre-dose blood samples for hematology and clinical biochemistry (baseline values for safety assessment). • J5 ([…]) and J8: pre-dose blood samples. • J13: last administration, withdrawal of plasma samples for pharmacokinetic and plasma CTX-1 assessment (pre-dose and 0.5h, 1h, 2h, 4h, 8h and 24h after last drug administration), pre-dose sampling for hematology and clinical biochemistry (baseline values for safety assessment). • J15 to J≥19: washout period.
After centrifugation of blood samples plasma aliquots were stored at -20°C._After thawing on ice, 30 µL of plasma were transferred into 1.5 ml microtube containing 270 µL acetonitrile. Microtubes were then vigorously stirred and then centrifuged (12000 rpm, 10 min, 4°C) and the supernatant was transferred in Matrix tube for LC-MS/MS analysis.
A calibration curve (9 points, 3 to 30 000 nM) was obtained by spiking plasma samples from naive cats with appropriate quantities of Compound I.
Equipment: LC-MS/MS Acquity I Class-Wevo TQD (Waters®): - Acquity I Class ∘ Column: Waters® Acquity BEH C8, 50*2.1mm, 1.7 µm (40°C) ∘ Mobile phase: • ▪ A: Ammonium Formate 5mM, pH=3.8 • ▪ B: Ammonimuformate 5 mM in CH3CN 5% aqueous, pH=3.8 ∘ Injection volume: 1 µL ∘ Speed: 600 µL/min ∘ Gradient: […]
- Xevo TQD • ∘ Source temperature: 150°C • ∘ Desolvatation temperature: 600°C • ∘ Cone gaz speed: 50L/h • ∘ Desolvatation gaz speed: 1200L/h - Analytes MS characteristics
Terminal elimination half-life (t1/2) was calculated according to the following formula: T1/2 elimination = ln(2)/kel [formula] kel= slope of ln(C)=f(temps) calculated on the last points of the curves (elimination phase)/ MIV-701 exposure (Area Under the Curve; AUCt) was calculated according to trapezoidal method accroding to the following formula: AUCt−>inf = [C]t /kel [formula]

[1] = plasma MIV-701, oral 2 mg/kg once daily, Day 13 (repeated)
[2] = plasma MIV-701, oral 2 mg/kg, Day 0 (single)
[3] = plasma MIV-701, oral 10 mg/kg once daily, Day 13 (repeated)
[4] = plasma MIV-701, oral 10 mg/kg, Day 0 (single)
[5] = plasma MIV-701, oral 50 mg/kg, Day 0 (single)

Which “plasma exposure (AUC) at D13 higher than AUC at D0” value (2 mg/kg) does the source give for `CC(C)C[C@H](NC(=O)c1ccc(-c2csc(N3CCN(C)CC3)n2)cc1)C(=O)N1C[C@H](F)[C@H]2OCC(O)(O)[C@H]21` [MIV-701 besylate salt, N-[(S)-1-((3aS,6S,6aS)-6-Fluoro-S-oxo-hexahydro-furo[3,2-b]pyrrole-4-carbony)-3-methyl-butyl]-4-[2-(4-methyl-piperazin-1-yl)-thiazol-4-yl]-benzamide benzenesulphonate] here?
Its value is 1.2 folds.

What about the “plasma exposure (AUC) at D13 higher than AUC at D0” value (10 mg/kg) of the same compound?
Its value is 1.9 folds.

And the Cmax at 312 h [1]?
The Cmax at 312 h was 141 nM.

What about the Tmax at 312 h [1] of the same compound?
The Tmax at 312 h was 2 h.

What about the AUC(0-inf) at 312 h [1] of the same compound?
Its AUC(0-inf) at 312 h is 0.984 µM·h.

And the AUC(0-t) at 312 h [1]?
Its AUC(0-t) at 312 h is 0.972 µM·h.

And the half-life at 312 h [1]?
Its half-life at 312 h is 3.9 h.

And the Cmax [2]?
The Cmax was 122 nM.

And the Tmax at 0 h [2]?
The Tmax at 0 h was 2 h.

What about the AUC(0-inf) [2] of the same compound?
Its AUC(0-inf) is 0.811 µM·h.

And the AUC(0-t) [2]?
Its AUC(0-t) is 0.808 µM·h.

And the half-life [2]?
The half-life was 2.9 h.

What about the Cmax at 312 h [3] of the same compound?
Its Cmax at 312 h is 663 nM.

What about the Tmax at 312 h [3] of the same compound?
The Tmax at 312 h was 0.5 h.

And the AUC(0-inf) at 312 h [3]?
The AUC(0-inf) at 312 h was 5.3 µM·h.

What about the AUC(0-t) at 312 h [3] of the same compound?
The AUC(0-t) at 312 h was 5.07 µM·h.

And the half-life at 312 h [3]?
Its half-life at 312 h is 5.7 h.

And the Cmax [4]?
Its Cmax is 249 nM.

What about the Tmax at 0 h [4] of the same compound?
The Tmax at 0 h was 2 h.

What about the AUC(0-inf) [4] of the same compound?
Its AUC(0-inf) is 2.85 µM·h.

What about the AUC(0-t) [4] of the same compound?
Its AUC(0-t) is 2.78 µM·h.

And the half-life [4]?
Its half-life is 4.6 h.

And the Cmax [5]?
Its Cmax is 3890 nM.

And the Tmax at 0 h [5]?
The Tmax at 0 h was 2 h.

And the AUC(0-inf) [5]?
The AUC(0-inf) was 34.8 µM·h.

What about the AUC(0-t) [5] of the same compound?
Its AUC(0-t) is 33.6 µM·h.

And the half-life [5]?
Its half-life is 4.9 h.

What about the “Kel (4-24h)” value [1] of the same compound?
The value was -0.179 h⁻¹.

And the “Kel (4-24h)” value [2]?
The value was -0.236 h⁻¹.

And the “Kel (4-24h)” value [3]?
Its value is -0.122 h⁻¹.

What about the “Kel (4-24h)” value [4] of the same compound?
The value was -0.152 h⁻¹.

What about the “Kel (4-24h)” value [5] of the same compound?
Its value is -0.142 h⁻¹.
